This passage reports IC50 results from patent US10208044B2, “ACC inhibitors and uses thereof” (Gilead Apollo, LLC, priority 2013, dated 2019).

Structures are written as SMILES.

Assay [1] concerns ACC2. Particulars: ACC2 isolated from rat, mouse, monkey and human; cited from earlier work.
A further assay has as its system ACC1. Particulars: ACC1 isolated from rat, mouse, monkey and human; cited from earlier work.
Assay [2] has as its target ACC2 (Homo sapiens (Human), UniProt O00763). The assay is described as follows: in vitro ACC2 inhibition assay (ADP-Glo). The class given is biochemical. Particulars: 5 nM ACC2, 20 μM ATP, 20 μM acetyl-CoA. As for the experimental part: An exemplary procedure for the in vitro ACC inhibition assay, which can be used to determine the inhibitory action of compounds of the invention toward either ACC1 or ACC2, follows. The ADP-Glo™ Kinase Assay kit from Promega is used. The ADP-Glo™ Kinase Assay is a luminescent ADP detection assay to measure enzymatic activity by quantifying the amount of ADP produced during an enzyme reaction. The assay is performed in two steps; first, after the enzyme reaction, an equal volume of ADP-Glo™ Reagent is added to terminate the reaction and deplete the remaining ATP. Second, the Kinase Detection Reagent is added to simultaneously convert ADP to ATP and allow the newly synthesized ATP to be measured using a luciferase/luciferin reaction. Luminescence can be correlated to ADP concentrations by using an […]. The detailed procedure is as follows. 50 μL of the compound being tested (600 uM in DMSO) is added to a 384-well dilution plate. The compound is diluted 1:3 in succession in DMSO for each row for 11 wells. 0.5 μL ACC2 working solution is added to 384-well white Optiplate assay plate. 0.5 μL diluted compound solution in each column from step 2 is added to the assay plate, each row containing 2 replicates. For the last 2 rows, add 0.5 μL negative control (DMSO) in one row and 0.5 μL positive control (compound I-97) in the other. The plates are incubated at room temperature for 15 minutes. […] Plates are incubated at room temperature for 40 minutes, then read on a Perkin Elmer EnVision 2104 plate reader for luminescence as Relative Light Units (RLU).
Data for each concentration, as well as the positive and negative controls are averaged, and the standard deviation calculated. Percent inhibition is calculated by the formula: 100× (average negative control−compound)/(average negative control−average positive control). The IC50 for each compound is calculated by fitting the data with a non-linear regression equation: Y=Bottom+(Top-Bottom)/(1+10^((Log IC50-X)*HillSlope)), where X is the log of compound concentration and Y is percent inhibition. […]

Broadly, the IC50 is the concentration needed to halve the response being measured.

ACC2 (Homo sapiens (Human), UniProt O00763), sequence (O00763 whole entry, species assumed): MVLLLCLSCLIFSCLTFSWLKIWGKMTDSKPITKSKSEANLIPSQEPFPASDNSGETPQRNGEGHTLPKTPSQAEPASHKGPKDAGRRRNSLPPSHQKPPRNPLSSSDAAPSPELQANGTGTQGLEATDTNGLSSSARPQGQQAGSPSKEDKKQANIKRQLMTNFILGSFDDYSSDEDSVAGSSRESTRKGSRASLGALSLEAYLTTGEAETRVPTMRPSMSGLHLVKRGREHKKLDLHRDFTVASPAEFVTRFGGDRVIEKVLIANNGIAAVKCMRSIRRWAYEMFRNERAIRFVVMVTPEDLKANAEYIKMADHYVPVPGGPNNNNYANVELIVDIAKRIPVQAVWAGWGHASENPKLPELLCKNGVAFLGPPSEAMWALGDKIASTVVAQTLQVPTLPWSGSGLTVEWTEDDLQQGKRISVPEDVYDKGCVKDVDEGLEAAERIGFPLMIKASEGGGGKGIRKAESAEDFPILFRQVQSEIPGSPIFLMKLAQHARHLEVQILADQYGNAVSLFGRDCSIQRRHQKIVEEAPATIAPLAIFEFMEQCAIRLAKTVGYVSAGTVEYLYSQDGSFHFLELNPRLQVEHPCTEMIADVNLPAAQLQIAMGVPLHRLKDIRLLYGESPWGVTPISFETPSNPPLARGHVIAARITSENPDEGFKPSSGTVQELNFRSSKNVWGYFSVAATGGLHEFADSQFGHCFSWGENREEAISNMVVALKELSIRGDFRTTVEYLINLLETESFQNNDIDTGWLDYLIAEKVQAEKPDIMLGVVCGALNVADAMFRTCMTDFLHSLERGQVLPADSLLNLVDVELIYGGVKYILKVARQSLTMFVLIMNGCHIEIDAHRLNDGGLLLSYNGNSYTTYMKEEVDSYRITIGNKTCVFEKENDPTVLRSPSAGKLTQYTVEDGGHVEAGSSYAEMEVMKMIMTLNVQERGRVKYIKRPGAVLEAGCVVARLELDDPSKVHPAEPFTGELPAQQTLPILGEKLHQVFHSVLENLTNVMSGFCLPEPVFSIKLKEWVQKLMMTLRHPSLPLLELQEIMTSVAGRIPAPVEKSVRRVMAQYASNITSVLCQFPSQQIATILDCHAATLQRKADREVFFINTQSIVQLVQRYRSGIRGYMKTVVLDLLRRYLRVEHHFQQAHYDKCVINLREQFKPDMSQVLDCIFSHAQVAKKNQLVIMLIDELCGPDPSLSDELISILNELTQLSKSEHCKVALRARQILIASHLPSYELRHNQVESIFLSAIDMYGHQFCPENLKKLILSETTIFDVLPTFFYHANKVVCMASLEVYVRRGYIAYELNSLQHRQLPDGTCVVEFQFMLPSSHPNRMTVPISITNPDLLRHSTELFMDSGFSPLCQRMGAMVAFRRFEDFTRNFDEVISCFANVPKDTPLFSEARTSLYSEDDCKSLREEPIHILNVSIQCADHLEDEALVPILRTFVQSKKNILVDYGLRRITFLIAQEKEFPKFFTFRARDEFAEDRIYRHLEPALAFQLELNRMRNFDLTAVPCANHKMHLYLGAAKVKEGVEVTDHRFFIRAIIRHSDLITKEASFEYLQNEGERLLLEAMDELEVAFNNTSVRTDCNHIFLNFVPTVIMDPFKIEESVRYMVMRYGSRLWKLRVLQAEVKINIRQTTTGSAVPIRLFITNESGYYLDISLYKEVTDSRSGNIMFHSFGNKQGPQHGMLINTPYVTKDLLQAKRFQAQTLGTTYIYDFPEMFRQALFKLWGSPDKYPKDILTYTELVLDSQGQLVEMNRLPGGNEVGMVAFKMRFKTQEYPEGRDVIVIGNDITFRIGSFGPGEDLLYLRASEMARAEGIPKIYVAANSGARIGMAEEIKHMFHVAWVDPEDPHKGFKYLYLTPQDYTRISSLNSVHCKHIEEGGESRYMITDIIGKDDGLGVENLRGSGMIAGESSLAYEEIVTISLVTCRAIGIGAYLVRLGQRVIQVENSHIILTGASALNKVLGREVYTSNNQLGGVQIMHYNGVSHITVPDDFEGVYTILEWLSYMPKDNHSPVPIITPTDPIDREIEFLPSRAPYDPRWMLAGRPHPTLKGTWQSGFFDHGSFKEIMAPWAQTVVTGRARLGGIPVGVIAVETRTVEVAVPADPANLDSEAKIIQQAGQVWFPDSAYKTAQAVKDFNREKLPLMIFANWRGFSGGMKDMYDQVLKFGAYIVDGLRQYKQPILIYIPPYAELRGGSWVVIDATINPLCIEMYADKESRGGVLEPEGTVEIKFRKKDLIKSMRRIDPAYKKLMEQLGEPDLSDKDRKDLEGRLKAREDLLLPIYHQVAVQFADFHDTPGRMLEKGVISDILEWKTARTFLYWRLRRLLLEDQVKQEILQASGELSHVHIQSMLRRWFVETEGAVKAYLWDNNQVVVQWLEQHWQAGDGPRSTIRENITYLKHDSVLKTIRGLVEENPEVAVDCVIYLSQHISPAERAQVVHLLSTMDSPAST

On to `O=C(c1c2ccccc2cc2ccccc12)N1CCC(N2CCC[C@@H](C(=O)N3CCOCC3)C2)CC1` [CP-640186], for which the IC50 in the assay on ACC2 [1] and with ACC1 was approximately 0.06 µM in each case.
At ACC2 [2], `COc1ccc(F)cc1[C@H](Cn1c(=O)n(C(C)(C)C(=O)O)c(=O)c2cc(-c3ncco3)ccc21)OC1CCOCC1` [Compound I-28, (R)-2-(1-(2-(5-fluoro-2-methoxyphenyl)-2-((tetrahydro-2H-pyran-4-yl)oxy)ethyl)-6-(oxazol-2-yl)-2,4-dioxo-1,2-dihydroquinazolin-3(4H)-yl)-2-methylpropanoic acid] had an IC50 of 20 to 50 µM.
On the same count and under the same terms, the result for `COc1ccc(F)cc1[C@H](Cn1c(=O)n(C(C)(C)C(N)=O)c(=O)c2cc(-c3ncco3)ccc21)OC1CCOCC1` [Compound I-29, (R)-2-(1-(2-(5-fluoro-2-methoxyphenyl)-2-((tetrahydro-2H-pyran-4-yl)oxy)ethyl)-6-(oxazol-2-yl)-2,4-dioxo-1,2-dihydroquinazolin-3(4H)-yl)-2-methylpropanamide] reads 20 to 50 µM; that for `COc1ccc(F)cc1[C@H](Cn1c(=O)n(C(C)(C)C(=O)O)c(=O)c2cc(Br)ccc21)OC1CCOCC1` [Compound I-30, (R)-2-(6-bromo-1-(2-(5-fluoro-2-methoxyphenyl)-2-((tetrahydro-2H-pyran-4-yl)oxy)ethyl)-2,4-dioxo-1,2-dihydroquinazolin-3(4H)-yl)-2-methylpropanoic acid], 20 to 50 µM.
